# Measured values: PMC9505425, “Targeting of the Mitochondrial TET1 Protein by Pyrrolo[3,2-b]pyrrole Chelators” (International Journal of Molecular Sciences, 2022)
# Where “and” joins values, the source holds several entries; their conditions need not be identical. Equal entries are not always repeated.
# How the values were obtained:
# Caov-3 cells = test: MTT cytotoxicity assay, Caov-3; type: cell-based, human
# Protocol: (§1) The effects of the tested compounds 1–6 on HF-P4, U-118 MG, H1299, BT-20, and Caov-3 cell lines were evaluated by the MTT assay during 48 h treatment (Table 2 and Tables S2–S31). In all tested compounds, we recognized a difference in cytotoxicity between healthy cells (HF-P4) and cancer cell lines (BT-20, Caov-3, and H-1299). […] In the case of ovarian cancer, the authors discovered oncogenic and poor prognosis roles of TET1 in epithelial ovarian carcinoma (EOC). TET1 is believed to demethylate the epigenome and activate numerous oncogenic pathways in EOC. The aforementioned study presents a new mechanism where TET1 contributes to tumor development through collaboration with CK2α [21]. The overexpression of the TET1 protein was also found in triple negative breast cancer and was associated with an activation of PI3K/mTOR pathway and decreased overall survival.
# The human ovary adenocarcinoma cell line (Caov-3), purchased from ATCC (Caov-3 (ATCC® HTB-75™), Manassas, VA, USA), was used for the cytotoxicity assay (MTT). Caov-3 cells were cultivated under standard conditions in Dulbecco’s modified Eagle’s medium (ATCC, Manassas, VA, USA) supplemented with 10% FBS and streptomycin (100 μg/mL) at 37 °C at a 5% CO2 atmosphere.
# (§2) For the cytotoxicity assay, we used the following cell lines: human glioblastoma cell line U118-MG, human mammary gland/breast cell line BT-20, human ovary adenocarcinoma cell line Caov-3, and non-small-cell lung carcinoma H-1299. As previously mentioned, these cell lines contain a high level of the TET1 protein, which corresponds to a lower overall survival. In addition to these cell cultures, we used the human dermal fibroblast cell line HF-P4 as a healthy control. Determination of cytotoxicity was performed using the MTT [3-(4,5-dimethylthiazol-2-yl)-2,5-diphenyltetrazolium bromide] colorimetric assay. Viable cells from each cell line were cultured in 96-well plates (VWR, Stříbrná Skalice, Czech Republic) at a density of 1.0 × 10^5 cells per well and allowed to grow for 24 h in 200 μL of recommended medium. After a 1-day incubation, the medium was replaced with solutions of compounds 1–6 at concentration ranges of 0.1–20 μM. Each concentration was measured four times within one test, and the entire test was repeated three times. Tested compounds 1–6 were dissolved in DMSO and then diluted with corresponding medium to a final volume of 200 μL (maximum 1% DMSO). After 48 h exposure, cells were treated with 175 μL of MTT solution (P-LAB, Prague, Czech Republic) for 2 h. In the next step, MTT solution was removed, and 125 μL of DMSO (Penta, Prague, Czech Republic) was added to solubilize dark crystals of formazan formed in intact cells, and absorbance was measured at 570 nm by the enzyme-linked immunoabsorbent assay reader Infinite® 200 PRO (Tecan, Männedorf, Switzerland). The final DMSO concentration was smaller than 1% (v/v). The absorbance of untreated cells was considered 100%, and IC50 values were calculated by the GraphPad Prism 8 software. As a parameter for cytotoxicity, we used a concentration that inhibits 50% of cell growth (IC50).
# BT-20 cells = test: MTT cytotoxicity assay, BT-20; type: cell-based, human
# Protocol: as §1
# The human mammary gland/breast cell line (BT-20), purchased from ATCC (BT-20 (ATCC® HTB-19™), Manassas, VA, USA), was used for the cytotoxicity assay (MTT), and BT-20 cells were cultivated under standard conditions in Eagle’s minimum essential medium (ATCC, Manassas, VA, USA) supplemented with 10% FBS and streptomycin (100 μg/mL) at 37 °C at a 5% CO2 atmosphere.
# as §2
structure (smiles),measurement,setting,value
COc1cccc(/C=N/NC(=O)c2ccc(-c3cc4c(cc(-c5ccc(C(=O)N/N=C/c6cccc(OC)c6O)cc5)n4-c4ccc(C)cc4)n3-c3ccc(C)cc3)cc2)c1O [Compound 5],melting point,,321 to 322 °C
same,Cell viability %,"Caov-3 cells; Caov-3, 100 nM, 48 h, repeats, 0.1 µM",124.7159% and 131.0561% and 82.4%
same,Cell viability %,"Caov-3 cells; Caov-3, 500 nM, 48 h, repeats, 0.5 µM",90.56% and 116.6807% and 137.4211%
same,Cell viability %,"Caov-3 cells; Caov-3, 750 nM, 48 h, repeats, 0.75 µM",97.72% and 117.0859% and 120.9681%
same,Cell viability %,"Caov-3 cells; Caov-3, 1 uM, 48 h, repeats, 1 µM",115.5595% and 95.48% and 128.3145%
same,Cell viability %,"Caov-3 cells; Caov-3, 2.5 uM, 48 h, repeats, 2.5 µM",106.339% and 69.34% and 79.185%
same,Cell viability %,"Caov-3 cells; Caov-3, 5 uM, 48 h, repeats, 5 µM",81.63% and 70.92%
same,Cell viability %,"Caov-3 cells; Caov-3, 7.5 uM, 48 h, repeats, 7.5 µM",49.35% and 63.65%
same,Cell viability %,"Caov-3 cells; Caov-3, 10 uM, 48 h, repeats, 10 µM",41.31% and 47.33%
same,Cell viability %,"Caov-3 cells; Caov-3, 15 uM, 48 h, repeats, 15 µM",34.22% and 36.44%
same,Cell viability %,"Caov-3 cells; Caov-3, 20 uM, 48 h, repeats, 20 µM",16.1941% and 14.83%
same,viability at 5 µM,"Caov-3 cells; Homo sapiens, Caov-3, 48 h, Caov-3, 5 uM, repeats, read-out: Cell viability %",83.6%
same,viability at 7.5 µM,"Caov-3 cells; Homo sapiens, Caov-3, 48 h, Caov-3, 7.5 uM, repeats, read-out: Cell viability %",62.5%
same,viability at 10 µM,"Caov-3 cells; Homo sapiens, Caov-3, 48 h, Caov-3, 10 uM, repeats, read-out: Cell viability %",29.5%
same,viability at 15 µM,"Caov-3 cells; Homo sapiens, Caov-3, 48 h, Caov-3, 15 uM, repeats, read-out: Cell viability %",31.5%
same,viability at 20 µM,"Caov-3 cells; Homo sapiens, Caov-3, 48 h, Caov-3, 20 uM, repeats, read-out: Cell viability %",17.9%
same,IC50,"Caov-3 cells; Homo sapiens, Caov-3, MTT, 48 h",9.48 µM
same,Cell viability %,"BT-20 cells; BT-20, 100 nM, 48 h, repeats, 0.1 µM",94.73% and 89.5899%
same,Cell viability %,"BT-20 cells; BT-20, 500 nM, 48 h, repeats, 0.5 µM",90.47% and 107.0261%
same,Cell viability %,"BT-20 cells; BT-20, 750 nM, 48 h, repeats, 0.75 µM",86.64% and 81% and 102.8391%
same,Cell viability %,"BT-20 cells; BT-20, 1 uM, 48 h, repeats, 1 µM",92.1% and 100.302%
same,Cell viability %,"BT-20 cells; BT-20, 2.5 uM, 48 h, repeats, 2.5 µM",80.3% and 100.57% and 104.0262%
same,Cell viability %,"BT-20 cells; BT-20, 5 uM, 48 h, repeats, 5 µM",60.99% and 87.49% and 89.1%
same,Cell viability %,"BT-20 cells; BT-20, 7.5 uM, 48 h, repeats, 7.5 µM",52.633% and 55.7373%
same,Cell viability %,"BT-20 cells; BT-20, 10 uM, 48 h, repeats, 10 µM",52.47% and 37.54%
same,Cell viability %,"BT-20 cells; BT-20, 15 uM, 48 h, repeats, 15 µM",28.45% and 34.27%
same,Cell viability %,"BT-20 cells; BT-20, 20 uM, 48 h, repeats, 20 µM",18.3694% and 26.24%
same,viability at 0.1 µM,"BT-20 cells; Homo sapiens, BT-20, 48 h, BT-20, 100 nM, repeats, read-out: Cell viability %",86%
same,viability at 0.5 µM,"BT-20 cells; Homo sapiens, BT-20, 48 h, BT-20, 500 nM, repeats, read-out: Cell viability %",97.4%
same,viability at 1 µM,"BT-20 cells; Homo sapiens, BT-20, 48 h, BT-20, 1 uM, repeats, read-out: Cell viability %",99%
same,viability at 7.5 µM,"BT-20 cells; Homo sapiens, BT-20, 48 h, BT-20, 7.5 uM, repeats, read-out: Cell viability %",45.7%
same,viability at 10 µM,"BT-20 cells; Homo sapiens, BT-20, 48 h, BT-20, 10 uM, repeats, read-out: Cell viability %",41.3%
same,viability at 15 µM,"BT-20 cells; Homo sapiens, BT-20, 48 h, BT-20, 15 uM, repeats, read-out: Cell viability %",28.5%
same,viability at 20 µM,"BT-20 cells; Homo sapiens, BT-20, 48 h, BT-20, 20 uM, repeats, read-out: Cell viability %",20.9%
same,IC50,"BT-20 cells; Homo sapiens, BT-20, MTT, 48 h",11.2 µM
